Source: ChEMBL document CHEMBL5505992, “Novel membrane-targeting isoxanthohumol-amine conjugates for combating methicillin-resistant Staphylococcus aureus (MRSA) infections” (Eur J Med Chem, 2024)
≈ marks a conversion by molar mass, not a printed value. Calls of active or inactive are those of the source. No cut-off for these calls is given here.

Experiments:
Staphylococcus aureus [1] = assay: Antibacterial activity against methicillin-resistant Staphylococcus aureus infected in Kunming mouse skin infection model assessed as decrease in bacterial load at 4 mg/kg,sc measured after 24 hrs relative to control; type: functional; design: scale not given: the % may be the effect or the level left
Staphylococcus aureus [2] = assay: Bactericidal activity against Staphylococcus aureus ATCC 29213 assessed as inhibition of bacterial growth at 8 times MIC measured within 0.5 to 1 hrs by time kill assay; type: functional, organism-based; conditions: time 0.5-1 hrs
Staphylococcus aureus [3] = assay: Antibacterial activity against methicillin-resistant Staphylococcus aureus infected in Kunming mouse skin infection model assessed as decrease in bacterial load at 4 mg/kg,sc measured after 24 hrs; type: functional
Staphylococcus aureus [4] = assay: Bactericidal activity against methicillin-resistant Staphylococcus aureus clinical isolate MRSA-16 assessed as inhibition of bacterial growth at 8 times MIC measured within 0.5 to 1 hrs by time kill assay; type: functional, organism-based; conditions: time 0.5-1 hrs
Staphylococcus aureus [5] = assay: Antibacterial activity against methicillin-resistant Staphylococcus aureus infected in Kunming mouse skin infection model assessed as reduction in number of bacterial cells at 4 mg/kg,sc measured after 24 hrs; type: functional, organism-based
Staphylococcus aureus [6] = assay: Antibacterial activity against methicillin-resistant Staphylococcus aureus infected in Kunming mouse skin infection model assessed as effect on skin abscesses in dorsal surface at 4 mg/kg,sc measured after 24 hrs; type: functional, organism-based
Staphylococcus aureus [7] = assay: Antibacterial activity against methicillin-resistant Staphylococcus aureus infected in Kunming mouse skin infection model assessed as effect on skin abscesses at 4 mg/kg,sc measured after 24 hrs; type: functional, organism-based
Staphylococcus aureus [8] = assay: Antibacterial activity against methicillin-resistant Staphylococcus aureus infected in Kunming mouse skin infection model assessed as reduction in inflammatory cells at 4 mg/kg,sc measured after 24 hrs; type: functional, organism-based
Cell membrane [9] = assay: Induction of cytoplasmic membrane depolarization in methicillin-resistant Staphylococcus aureus clinical isolate MRSA-16 assessed as increase in fluorescence intensity at 32 ug/ml measured every 2 mins for 20 mins by SYTOX green staining based analysis; type: cell membranes; conditions: dose 32.0 µg/ml
Cell membrane [10] = assay: Induction of cell membrane depolarization in methicillin-resistant Staphylococcus aureus clinical isolate MRSA-16 assessed as fold increase in fluorescence intensity at 32 ug/ml measured every 2 mins for 20 mins by DISC3(5) staining based analysis; type: cell membranes; conditions: dose 32.0 µg/ml
Cell membrane [11] = assay: Induction of cytoplasmic membrane depolarization in methicillin-resistant Staphylococcus aureus clinical isolate MRSA-16 assessed as fold increase in fluorescence intensity at 32 ug/ml measured every 2 mins for 20 mins by SYTOX green staining based analysis; type: cell membranes; conditions: dose 32.0 µg/ml
Staphylococcus aureus [12] = assay: Antibacterial activity against Staphylococcus aureus ATCC 29213 at sub-inhibitory concentration measured after 4 passages for 16 to 18 hrs; type: functional, organism-based; conditions: time 16-18 hrs
Staphylococcus aureus [13] = assay: Drug resistance, ratio of MIC for Staphylococcus aureus ATCC 29213 after 15 passages exposure to MIC for Staphylococcus aureus ATCC 29213 during first exposure; type: functional
Staphylococcus aureus [14] = assay: Antibacterial activity against methicillin-resistant Staphylococcus aureus clinical isolate MRSA-20 measured after 16 to 18 hrs by CLSI method; type: functional; conditions: time 16-18 hrs
Staphylococcus aureus [15] = assay: Antibacterial activity against Staphylococcus aureus ATCC 29213 measured after 16 to 18 hrs by CLSI method; type: functional; conditions: time 16-18 hrs
Staphylococcus aureus [16] = assay: Antibacterial activity against methicillin-resistant Staphylococcus aureus clinical isolate MRSA-13 measured after 16 to 18 hrs by CLSI method; type: functional; conditions: time 16-18 hrs
Staphylococcus aureus [17] = assay: Antibacterial activity against methicillin-resistant Staphylococcus aureus clinical isolate MRSA-18 measured after 16 to 18 hrs by CLSI method; type: functional; conditions: time 16-18 hrs
[18] = Hemolytic activity in sheep erythrocytes incubated for 1 hr by absorbance based analysis; type: toxicity, cell-based, Ovis aries, Erythrocyte
Staphylococcus aureus [19] = assay: Antibacterial activity against methicillin-resistant Staphylococcus aureus clinical isolate MRSA-17 measured after 16 to 18 hrs by CLSI method; type: functional; conditions: time 16-18 hrs
Staphylococcus aureus [20] = assay: Antibacterial activity against methicillin-resistant Staphylococcus aureus clinical isolate MRSA-23 measured after 16 to 18 hrs by CLSI method; type: functional; conditions: time 16-18 hrs
Staphylococcus aureus [21] = assay: Antibacterial activity against methicillin-resistant Staphylococcus aureus clinical isolate MRSA-11 measured after 16 to 18 hrs by CLSI method; type: functional; conditions: time 16-18 hrs
Staphylococcus aureus [22] = assay: Antibacterial activity against methicillin-resistant Staphylococcus aureus clinical isolate MRSA-16 measured after 16 to 18 hrs by CLSI method; type: functional; conditions: time 16-18 hrs
Staphylococcus aureus [23] = assay: Antibacterial activity against methicillin-resistant Staphylococcus aureus clinical isolate MRSA-14 measured after 16 to 18 hrs by CLSI method; type: functional; conditions: time 16-18 hrs
Escherichia coli = assay: Antibacterial activity against Escherichia coli ATCC25922 measured after 16 to 18 hrs by CLSI method; type: functional; conditions: time 16-18 hrs
Staphylococcus aureus [24] = assay: Antibacterial activity against methicillin-resistant Staphylococcus aureus clinical isolate MRSA-22 measured after 16 to 18 hrs by CLSI method; type: functional; conditions: time 16-18 hrs
[25] = Selectivity index, ratio of HC50 for hemolytic activity in sheep erythrocytes to MIC for antibacterial activity against Staphylococcus aureus ATCC 29213; type: toxicity, cell-based; conditions: read-out: Selectivity Index
Staphylococcus aureus [26] = assay: Antibacterial activity against methicillin-resistant Staphylococcus aureus clinical isolate MRSA-21 measured after 16 to 18 hrs by CLSI method; type: functional; conditions: time 16-18 hrs

SMILES	MIC (Staphylococcus aureus [14]) [µg/mL]	MIC (Staphylococcus aureus [15]) [µg/mL]	MIC (Staphylococcus aureus [16]) [µg/mL]	MIC (Staphylococcus aureus [17]) [µg/mL]	HC50 at 1 h [18] [µg/mL]	MIC (Staphylococcus aureus [19]) [µg/mL]	MIC (Staphylococcus aureus [20]) [µg/mL]	MIC (Staphylococcus aureus [21]) [µg/mL]	MIC (Staphylococcus aureus [22]) [µg/mL]	MIC (Staphylococcus aureus [23]) [µg/mL]	MIC (Escherichia coli) [µg/mL]	MIC (Staphylococcus aureus [24]) [µg/mL]	selectivity ratio [25]	MIC (Staphylococcus aureus [26]) [µg/mL]	also measured
CN[C@H](CC(C)C)C(=O)N[C@H]1C(=O)N[C@@H](CC(N)=O)C(=O)N[C@H]2C(=O)N[C@H]3C(=O)N[C@H](C(=O)N[C@H](C(=O)O)c4cc(O)cc(O)c4-c4cc3ccc4O)[C@H](O)c3ccc(c(Cl)c3)Oc3cc2cc(c3O[C@@H]2O[C@H](CO)[C@@H](O)[C@H](O)[C@H]2O[C@H]2C[C@](C)(N)[C@H](O)[C@H](C)O2)Oc2ccc(cc2Cl)[C@H]1O [VANCOMYCIN]	–	–	–	–	–	–	–	–	–	–	–	–	–	–	Activity (Staphylococcus aureus [1]): 97.67%; Activity (Staphylococcus aureus [2]): Active; Activity (Staphylococcus aureus [3]): 1.6 log10CFU/g; Activity (Staphylococcus aureus [4]): Active; Activity (Staphylococcus aureus [5]): Active; Activity (Staphylococcus aureus [6]): Active; Activity (Staphylococcus aureus [7]): Active; Activity (Staphylococcus aureus [8]): Active
CC[C@H](C)[C@H](NC(=O)CN)C(=O)NCC(=O)N[C@@H](C)C(=O)N[C@H](C(=O)N[C@@H](CC(C)C)C(=O)N[C@@H](CCCCN)C(=O)N[C@H](C(=O)N[C@@H](CC(C)C)C(=O)N[C@H](C(=O)N[C@H](C(=O)NCC(=O)N[C@@H](CC(C)C)C(=O)N1CCC[C@H]1C(=O)N[C@@H](C)C(=O)N[C@@H](CC(C)C)C(=O)N[C@H](C(=O)N[C@@H](CO)C(=O)N[C@@H](Cc1c[nH]c2ccccc12)C(=O)N[C@H](C(=O)N[C@@H](CCCCN)C(=O)N[C@@H](CCCNC(=N)N)C(=O)N[C@@H](CCCCN)C(=O)N[C@@H](CCCNC(=N)N)C(=O)N[C@@H](CCC(N)=O)C(=O)N[C@@H](CCC(N)=O)C(N)=O)[C@@H](C)CC)[C@@H](C)CC)[C@@H](C)O)[C@@H](C)O)C(C)C)C(C)C	–	–	–	–	–	–	–	–	–	–	–	–	–	–	Activity (Cell membrane [9]): Active; fold change (FC) (Cell membrane [10]): 4.4; fold change (FC) (Cell membrane [11]): 7
CCn1cc(C(=O)O)c(=O)c2cc(F)c(N3CCNCC3)cc21 [NORFLOXACIN]	–	–	–	–	–	–	–	–	–	–	–	–	–	–	Activity (Staphylococcus aureus [12]): Active; fold change (FC) (Staphylococcus aureus [13]): 128
COc1cc(OCCCCN2CCC(C)CC2)c(CC=C(C)C)c2c1C(=O)CC(c1ccc(OCCCCN3CCC(C)CC3)cc1)O2 (centres undefined)	16 (≈ 24.2 µM)	16 (≈ 24.2 µM)	8 (≈ 12.1 µM)	16 (≈ 24.2 µM)	> 640	8 (≈ 12.1 µM)	16 (≈ 24.2 µM)	16 (≈ 24.2 µM)	8 (≈ 12.1 µM)	16 (≈ 24.2 µM)	> 128	8 (≈ 12.1 µM)	> 40	8 (≈ 12.1 µM)	–
COc1cc(OCCCCCN2CCCCC2)c(CC=C(C)C)c2c1C(=O)CC(c1ccc(OCCCCCN3CCCCC3)cc1)O2 (centres undefined)	8 (≈ 12.1 µM)	8 (≈ 12.1 µM)	8 (≈ 12.1 µM)	8 (≈ 12.1 µM)	151	4 (≈ 6.05 µM)	8 (≈ 12.1 µM)	8 (≈ 12.1 µM)	8 (≈ 12.1 µM)	8 (≈ 12.1 µM)	> 128	8 (≈ 12.1 µM)	18.9	8 (≈ 12.1 µM)	–
COc1cc(OCCCCCN2CCN(C)CC2)c(CC=C(C)C)c2c1C(=O)CC(c1ccc(OCCCCCN3CCN(C)CC3)cc1)O2 (centres undefined)	16 (≈ 23.2 µM)	16 (≈ 23.2 µM)	16 (≈ 23.2 µM)	16 (≈ 23.2 µM)	> 1280	8 (≈ 11.6 µM)	16 (≈ 23.2 µM)	16 (≈ 23.2 µM)	16 (≈ 23.2 µM)	16 (≈ 23.2 µM)	> 128	16 (≈ 23.2 µM)	> 80	16 (≈ 23.2 µM)	–
CCCCN(CCCC)CCCOc1ccc(C2CC(=O)c3c(OC)cc(OCCCN(CCCC)CCCC)c(CC=C(C)C)c3O2)cc1 (centres undefined)	8 (≈ 11.5 µM)	8 (≈ 11.5 µM)	8 (≈ 11.5 µM)	8 (≈ 11.5 µM)	810	4 (≈ 5.77 µM)	8 (≈ 11.5 µM)	8 (≈ 11.5 µM)	4 (≈ 5.77 µM)	4 (≈ 5.77 µM)	> 128	4 (≈ 5.77 µM)	101	8 (≈ 11.5 µM)	–
